Assay results taken from PMC9762789, “Chromone-based monoamine oxidase B inhibitor with potential iron-chelating activity for the treatment of Alzheimer’s disease” (Journal of Enzyme Inhibition and Medicinal Chemistry, 2022).
Read-outs that look alike come from different tables or passages of the source.

Columns and labels:
MAO-B = target: T1, MAO-B (Homo sapiens, UniProt P27338); test: hMAO-B inhibition assay; assay type: biochemical; conditions: hMAO-B, 100 nM; read-out: Inhibitory rate (%, 100 nM)
T1 construct: purchased Sigma-Aldrich
T1 sequence (P27338 1-520): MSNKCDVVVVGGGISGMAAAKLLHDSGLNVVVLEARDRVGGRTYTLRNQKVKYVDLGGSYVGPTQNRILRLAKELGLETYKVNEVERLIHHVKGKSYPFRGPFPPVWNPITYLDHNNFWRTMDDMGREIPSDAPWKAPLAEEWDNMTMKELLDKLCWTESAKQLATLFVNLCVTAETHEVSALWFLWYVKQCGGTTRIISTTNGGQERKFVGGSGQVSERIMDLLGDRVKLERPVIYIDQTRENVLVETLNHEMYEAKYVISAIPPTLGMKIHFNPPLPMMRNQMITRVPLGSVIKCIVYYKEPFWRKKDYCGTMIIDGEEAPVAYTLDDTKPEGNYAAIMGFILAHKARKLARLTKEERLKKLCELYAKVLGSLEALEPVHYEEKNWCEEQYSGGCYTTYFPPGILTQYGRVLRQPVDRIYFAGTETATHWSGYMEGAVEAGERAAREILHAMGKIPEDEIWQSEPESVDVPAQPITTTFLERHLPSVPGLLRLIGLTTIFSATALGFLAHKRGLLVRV
Method: The reagents and enzymes (Human MAO-B and Human MAO-A) applied in this experiment were purchased from Sigma-Aldrich. According to the manuals, all components (substrate solution and enzyme solution) are diluted and placed aside for use. The detailed process has been mentioned in our early work[34].

[1] = pKa determination by automated spectrophotometric titration; assay type: physicochemical; conditions: 0.1 M KCl solution
[2] = iron (III) affinity constants and pFe3+ by spectrophotometric titration; assay type: physicochemical; conditions: for Log β1 / Log β2 / Log β3: DMSO: KCl (0.1 M) = 1:1.5 (v/v); for pFe^3+: calculated from Log β values obtained in DMSO: KCl (0.1 M) = 1:1.5 (v/v)

Row | inhibition at 0.1 µM (MAO-B) [%] | pKa ([1]; read-out: pKa1) | pKa ([1]; read-out: pKa2) | Log β1 [2] | Log β2 [2] | Log β3 [2] | pFe^3+ [2] | melting point [°C] | SMILES
1 | 35.79 ± 0.2 | 3.32 | 9.58 | 13.74 | 25.04 | 34.36 | 18.35 | 270 to 272 | Cc1ccc2c(=O)c(C(=O)NCCn3ccc(=O)c(O)c3C)coc2c1 [Compound 8b, N-(2–(3-hydroxy-2-methyl-4-oxopyridin-1(4H)-yl)ethyl)-7-methyl-4-oxo-4H-chromene-3-carboxamide]
2 | 34.3 ± 2.2 | 3.18 | 9.67 | 13.67 | 25.38 | 35.37 | 19.08 | 260 to 262 | COc1ccc2occ(C(=O)NCCn3ccc(=O)c(O)c3C)c(=O)c2c1 [Compound 8e, N-(2–(3-hydroxy-2-methyl-4-oxopyridin-1(4H)-yl)ethyl)-6-methoxy-4-oxo-4H-chromene-3-carboxamide]
3 | 39 ± 1.1 | 3.3 | 9.59 | 13.77 | 24.72 | 32.17 | 16.45 | 225 to 227 | Cc1c(O)c(=O)ccn1CCNC(=O)c1coc2cc(OCc3ccccc3)ccc2c1=O [Compound 15a, 7-(Benzyloxy)-N-(2–(3-hydroxy-2-methyl-4-oxopyridin-1(4H)-yl)ethyl)-4-oxo-4H-chromene-3-carboxamide]
4 | 39.1 ± 1.1 | 3.06 | 9.73 | 13.64 | 25.57 | 34.21 | 17.80 | 238 to 240 | Cc1cccc(COc2ccc3c(=O)c(C(=O)NCCn4ccc(=O)c(O)c4C)coc3c2)c1 [Compound 15b, N-(2–(3-hydroxy-2-methyl-4-oxopyridin-1(4H)-yl)ethyl)-7-((3-methylbenzyl)oxy)-4-oxo-4H-chromene-3-carboxamide]
5 | 38.7 ± 0.5 | 3.19 | 9.34 | 13.40 | 23.16 | 31.01 | 15.87 | 234 to 236 | Cc1ccc(COc2ccc3c(=O)c(C(=O)NCCn4ccc(=O)c(O)c4C)coc3c2)cc1 [Compound 15c, N-(2–(3-hydroxy-2-methyl-4-oxopyridin-1(4H)-yl)ethyl)-7-((4-methylbenzyl)oxy)-4-oxo-4H-chromene-3-carboxamide]
6 | 38.5 ± 1.4 | 3.36 | 9.52 | 13.50 | 25.31 | 34.85 | 19.01 | 237 to 239 | Cc1c(O)c(=O)ccn1CCNC(=O)c1coc2cc(OCc3cccc(F)c3)ccc2c1=O [Compound 15d, 7-((3-Fluorobenzyl)oxy)-N-(2–(3-hydroxy-2-methyl-4-oxopyridin-1(4H)-yl)ethyl)-4-oxo-4H-chromene-3-carboxamide]
7 | 39.1 ± 0.5 | 3.25 | 9.56 | 13.82 | 24.02 | 31.70 | 16.00 | 241 to 243 | Cc1c(O)c(=O)ccn1CCNC(=O)c1coc2cc(OCc3ccc(Cl)cc3)ccc2c1=O [Compound 15g, 7-((4-Chlorobenzyl)oxy)-N-(2–(3-hydroxy-2-methyl-4-oxopyridin-1(4H)-yl)ethyl)-4-oxo-4H-chromene-3-carboxamide]
8 | 30.1 ± 3.7 | 2.56 | 9.59 | 12.87 | 24.73 | 33.36 | 17.34 | 134 to 136 | Cc1ccc(COc2ccc3c(=O)c(CNCCn4ccc(=O)c(O)c4C)coc3c2)cc1 [Compound 17h, 3-Hydroxy-2-methyl-1–(2-(((7-((4-methylbenzyl)oxy)-4-oxo-4H-chromen-3-yl)methyl)amino)ethyl)pyridin-4(1H)-one]
